According to patent US9963496B2, “Stable glucagon analogues and use for treatment of hypoglycaemia” (Novo Nordisk A/S, priority 2014, dated 2018):
*1 amine or outer side, *2 acyl side, *3 side chain or, on linkers, in order; H or OH if unused. Where a SMILES comes first, the peptide text is derived from it. Side-chain parts run from the residue outwards. The star is where a group is joined. γGlu = O=C(O)[C@H](CCC(=O)[*:2])N[*:1]; Desaminohistidyl = O=C(CCc1c[nH]cn1)*

Experiments:
physchem = format: physicochemical; conditions: pH 7.5
Excerpt: Assay (III): ThT Fibrillation Assay for the Assessment of Physical Stability of Peptide Compositions The purpose of this assay is to assess the physical stability of the glucagon derivatives of the invention in aqueous solutions. Low physical stability of a peptide may lead to amyloid fibril formation, which is observed as well-ordered, thread-like macromolecular structures in the sample, which eventually may lead to gel formation. This has traditionally been measured by visual inspection of the sample. However, that kind of measurement is very cumbersome and depending on the observer. Therefore, the application of a small molecule indicator probe is much more advantageous. Thioflavin T (ThT) is such a probe and has a distinct fluorescence signature when binding to fibrils [Naiki et al. (1989) Anal. Biochem. 177, 244-249; LeVine (1999) Methods. Enzymol. 309, 274-284]. Here, as depicted in FIG. 1, F is the ThT fluorescence at the time t. The constant t0 is the time needed to reach 50% of maximum fluorescence. The two important parameters describing fibril formation are the lag-time calculated by t0−2τ and the apparent rate constant kapp 1/τ. Samples were prepared freshly before each assay. Each sample composition is described in the legends. The pH of the sample was adjusted to the desired value using appropriate amounts of concentrated NaOH and HCl. Thioflavin T was added to the samples from a stock solution in H2O to a final concentration of 1 μM. Sample aliquots of 200 μl (250 μM of the glucagon derivative/analogue in 10 mM HEPES buffer, pH 7.5) were placed in a 96 well microtiter plate (Packard OptiPlate™-96, white polystyrene). Usually, four or eight replica of each sample (corresponding to one test condition) was placed in one column of wells. The plate was sealed with Scotch Pad (Qiagen). Incubation at given temperature, shaking and measurement of the ThT fluorescence emission were done in a Fluoroskan Ascent FL fluorescence platereader (Thermo Labsystems). The plate was incubated 37° C. with orbital shaking adjusted to 960 rpm with an amplitude of 1 mm. Fluorescence measurement was done using excitation through a 444 nm filter and measurement of emission through a 485 nm filter. Each run was initiated by incubating the plate at the assay temperature for 10 min. The plate was measured every 20 minutes for a desired period of time. Between each measurement, the plate was shaken and heated as described. After completion of the ThT assay the four or eight replica of each sample was pooled and centrifuged at 20000 rpm for 30 minutes at 18° C. The supernatant was filtered through a 0.22 μm filter and an aliquot was transferred to a HPLC vial. The concentration of peptide in the initial sample and in the filtered supernatant was determined by reverse phase HPLC using an appropriate standard as reference. The percentage fraction the concentration of the filtered sample constituted of the initial sample concentration was reported as the recovery. The measurement points were saved in Microsoft Excel format for further processing and curve drawing and fitting was performed using GraphPad Prism. The background emission from ThT in the absence of fibrils was negligible. The data points were typically a mean of four or eight samples and shown with standard deviation error bars. Only data obtained in the same experiment (i.e. samples on the same plate) were presented in the same graph ensuring a relative measure of fibrillation between experiments. The data set may be fitted to Eq. (1).

human glucagon receptor = target: T1, human glucagon receptor (Homo sapiens, UniProt P47871); assay: Assay (I)(b): glucagon receptor activation, CRE luciferase reporter gene assay in BHK cells; format: cell-based; conditions: BHK cells expressing human glucagon receptor and CRE luciferase, 3 h incubation; read-out: EC50 hGlucagonR
T1 construct: expressed in transfected cells; host or cells: BHK cells, clone BHK hGCGR A3*25; isolated membranes
T1 sequence (P47871 26-477): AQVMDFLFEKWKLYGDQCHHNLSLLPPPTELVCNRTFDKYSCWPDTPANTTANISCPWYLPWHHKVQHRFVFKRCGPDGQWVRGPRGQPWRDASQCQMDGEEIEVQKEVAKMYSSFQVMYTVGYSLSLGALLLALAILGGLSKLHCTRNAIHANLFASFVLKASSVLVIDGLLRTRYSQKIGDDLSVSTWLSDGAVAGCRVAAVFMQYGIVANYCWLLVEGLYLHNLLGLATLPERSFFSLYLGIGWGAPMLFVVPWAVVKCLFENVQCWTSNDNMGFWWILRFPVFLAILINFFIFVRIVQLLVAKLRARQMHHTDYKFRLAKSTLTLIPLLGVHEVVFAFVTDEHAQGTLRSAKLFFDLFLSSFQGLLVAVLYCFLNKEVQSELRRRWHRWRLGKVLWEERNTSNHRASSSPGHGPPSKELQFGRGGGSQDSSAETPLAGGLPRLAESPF
Method: The purpose of this assay is to test the activity, or potency, of the derivatives of the invention, in vitro. The in vitro potency is the measure of human GLP-1 receptor and/or glucagon receptor activation, respectively, in a whole cell assay.
In vitro potency was determined by measuring the response of human GLP-1 or glucagon receptor, respectively, in a reporter gene assay. The assay was performed in a stably transfected BHK cell line that expressed either the human GLP-1 receptor or the human glucagon receptor and contained the DNA for the cAMP response element (CRE) coupled to a promoter and the gene for firefly luciferase (CRE luciferase). […] When assay incubation was completed, the luciferase substrate (luciferin) was added and the enzyme converted luciferin to oxyluciferin and produced bioluminescence. The luminescence was measured as the readout for the assay.
(b) Glucagon Receptor Activation
The cells used in this assay (clone pLJ6′-4-25) were BHK cells with BHK570 as a parent cell line expressing the CRE luciferase gene (clone BHK/KZ10-20-48) and were established by further transfection with the human glucagon receptor (clone pLJ6′ in pHZ-1 vector).
The cells were cultured at 5% CO2 in DMEM medium with 10% FBS, 1× GlutaMAX, 1 mg/mL G418, 240 nM MTX (methotrexate) and 1% pen/strep (penicillin/streptomycin). They were aliquoted and stored in liquid nitrogen. Before each assay, an aliquot was taken up and washed three times in PBS before being suspended at the desired concentration in assay buffer. For 96-well plates the suspension was made to give a final concentration of 5×10 EE3 cells/well.
Assay Medium consisted of DMEM w/o phenol red, 10 mM Hepes, lx GlutaMAX, 2% Ovalbumin and 0.2% Pluronic F-68.
Cell stocks were thawed in a 37° C. water bath. Cells were washed three times in PBS. The cells were counted and adjusted to 5×10 EE3 cells/50 μl (1×10 EE5 cells/mL) in Assay Medium. A 50 μl aliquot of cells was transferred to each well in the assay plate.
Stocks of the test compounds and reference compounds were diluted to a concentration of […] in Assay Medium. Compounds were diluted 10-fold to give the following concentrations: […], 2×10 EE-7 M, 2×10 EE-8 M; 2×10 EE-9 M, 2×10 EE-10 M, 2×10 EE-11 M, 2×10 EE-12 M and 2×10 EE-13 M. For each compound a blank assay buffer control was also included.
A 50 μl aliquot of compound or blank was transferred from the dilution plate to the assay plate. Compounds were tested at the following final concentrations: 1×10 EE-6 M, 1×10 EE-7 M, 1×10 EE-8 M; 1×10 EE-9 M, 1×10 EE-10 M, 1×10 EE-11 M and 1×10 EE-12 M and 1×10 EE-13 M.
The assay plate was incubated for 3 h in a 5% CO2 incubator at 37° C. The assay plate was removed from the incubator and allowed to stand at room temperature for 15 min. A 100 μl aliquot of steadylite plus reagent was added to each well of the assay plate (reagent is light sensitive). Each assay plate was covered with aluminum foil to protect it from light and shaken for 30 min at room temperature. Each assay plate was read in a Packard TopCount NXT instrument.
The data from the TopCount instrument was transferred to GraphPad Prism software. The software performed a non-linear regression (log(agonist) vs response-Variable slope (four parameter)). EC50 values were calculated by the software and reported in pM.

SMILES	recovery at 250 μM (physchem)	EC50 (human glucagon receptor)
CC(=O)N[C@@H](CCC(=O)N[C@@H](CCC(=O)N[C@@H](CCC(=O)N[C@@H](CCC(=O)NCCCC[C@H](NC(=O)[C@H](CCC(N)=O)NC(=O)[C@H](C)NC(=O)[C@H](CCCNC(=N)N)NC(=O)[C@H](CCCNC(=N)N)NC(=O)[C@H](CO)NC(=O)[C@H](CCC(=O)O)NC(=O)[C@H](CC(C)C)NC(=O)[C@H](Cc1ccc(O)cc1)NC(=O)[C@H](CCCCN)NC(=O)[C@H](CO)NC(=O)[C@H](Cc1ccc(O)cc1)NC(=O)[C@H](CC(=O)O)NC(=O)[C@H](CO)NC(=O)[C@@H](NC(=O)[C@H](Cc1ccccc1)NC(=O)[C@@H](NC(=O)CNC(=O)[C@H](Cc1c[nH]cn1)NC(=O)[C@H](CO)NC(=O)CCc1c[nH]cn1)[C@@H](C)O)[C@@H](C)O)C(=O)N[C@@H](Cc1ccccc1)C(=O)N[C@H](C(=O)N[C@@H](CCC(N)=O)C(=O)N[C@@H](Cc1c[nH]c2ccccc12)C(=O)N[C@@H](CC(C)C)C(=O)N[C@@H](CC(C)C)C(=O)N[C@@H](CO)C(=O)N[C@H](C(=O)O)[C@@H](C)O)C(C)C)C(=O)O)C(=O)O)C(=O)O)C(=O)O [Example 13, Nϵ^21-[(4S)-4-[[(4S)-4-[[(4S)-4-[[(4S)-4-acetamido-4-carboxybutanoyl]amino]-4-carboxybutanoyl]amino]-4-carboxybutanoyl]amino]-4-carboxybutanoyl]-[Imp1, His3, Glu15, Lys21, Leu27, Ser28]-Glucagon] (Desaminohistidyl-SHGTFTSDYSKYLESRRAQK([γGlu-γGlu-γGlu-γGlu-Ac])FVQWLLST-OH)	39%	17 pM
CC(=O)N[C@@H](CCC(=O)N[C@@H](CCC(=O)N[C@@H](CCC(=O)N[C@@H](CCC(=O)NCCCC[C@H](NC(=O)[C@H](CC(C)C)NC(=O)[C@H](CC(C)C)NC(=O)[C@H](Cc1c[nH]c2ccccc12)NC(=O)[C@H](CCC(N)=O)NC(=O)[C@@H](NC(=O)[C@H](Cc1ccccc1)NC(=O)[C@H](CCC(=O)O)NC(=O)[C@H](CCC(N)=O)NC(=O)[C@H](C)NC(=O)[C@H](CCCNC(=N)N)NC(=O)[C@H](CCCNC(=N)N)NC(=O)[C@H](CO)NC(=O)[C@H](CCC(=O)O)NC(=O)[C@H](CC(C)C)NC(=O)[C@H](Cc1ccc(O)cc1)NC(=O)[C@H](CCCCN)NC(=O)[C@H](CO)NC(=O)[C@H](Cc1ccc(O)cc1)NC(=O)[C@H](CC(=O)O)NC(=O)[C@H](CO)NC(=O)[C@@H](NC(=O)[C@H](Cc1ccccc1)NC(=O)[C@@H](NC(=O)CNC(=O)[C@H](Cc1c[nH]cn1)NC(=O)[C@H](CO)NC(=O)CCc1c[nH]cn1)[C@@H](C)O)[C@@H](C)O)C(C)C)C(=O)N[C@H](C(=O)O)[C@@H](C)O)C(=O)O)C(=O)O)C(=O)O)C(=O)O [Example 14, N^ϵ28-[(4S)-4-[[(4S)-4-[[(4S)-4-[[(4S)-4-acetamido-4-carboxybutanoyl]amino]-4-carboxybutanoyl]amino]-4-carboxybutanoyl]amino]-4-carboxybutanoyl]-[Imp1, His3, Glu15, Glu21, Leu27, Lys28]-Glucagon] (Desaminohistidyl-SHGTFTSDYSKYLESRRAQEFVQWLLK([γGlu-γGlu-γGlu-γGlu-Ac])T-OH)	98%	6 pM
CC(=O)N[C@@H](CCC(=O)N[C@@H](CCC(=O)N[C@@H](CCC(=O)N[C@@H](CCC(=O)NCCCC[C@H](NC(=O)[C@H](CO)NC(=O)[C@H](CC(C)C)NC(=O)[C@H](CC(C)C)NC(=O)[C@H](Cc1c[nH]c2ccccc12)NC(=O)[C@H](CCC(N)=O)NC(=O)[C@@H](NC(=O)[C@H](Cc1ccccc1)NC(=O)[C@H](CCC(=O)O)NC(=O)[C@H](CCC(N)=O)NC(=O)[C@H](C)NC(=O)[C@H](CCCNC(=N)N)NC(=O)[C@H](CCCNC(=N)N)NC(=O)[C@H](CO)NC(=O)[C@H](CCC(=O)O)NC(=O)[C@H](CC(C)C)NC(=O)[C@H](Cc1ccc(O)cc1)NC(=O)[C@H](CCCCN)NC(=O)[C@H](CO)NC(=O)[C@H](Cc1ccc(O)cc1)NC(=O)[C@H](CC(=O)O)NC(=O)[C@H](CO)NC(=O)[C@@H](NC(=O)[C@H](Cc1ccccc1)NC(=O)[C@@H](NC(=O)CNC(=O)[C@H](Cc1c[nH]cn1)NC(=O)[C@H](CO)NC(=O)CCc1c[nH]cn1)[C@@H](C)O)[C@@H](C)O)C(C)C)C(=O)O)C(=O)O)C(=O)O)C(=O)O)C(=O)O [Example 15, N^ϵ29-[(4S)-4-[[(4S)-4-[[(4S)-4-[[(4S)-4-acetamido-4-carboxybutanoyl]amino]-4-carboxybutanoyl]amino]-4-carboxybutanoyl]amino]-4-carboxybutanoyl]-[Imp1, His3, Glu15, Glu21, Leu27, Ser28, Lys29]-Glucagon] (Desaminohistidyl-SHGTFTSDYSKYLESRRAQEFVQWLLSK([γGlu-γGlu-γGlu-γGlu-Ac])-OH)	88%	4 pM
